Source: ChEMBL document CHEMBL3885881, “DrugMatrix”

Organism: Rattus norvegicus
Assay: DrugMatrix - Regimen: Daily Repeat
Assay type: toxicity, organism-based, Sprague-Dawley
Set-up: regimen Daily Repeat, gender Male, age 6-8 weeks
Details: in vivo, po, route oral GAVAGE, vehicle 100 % WATER; for ERYTHROCYTE COUNT / HEMATOCRIT / HEMOGLOBIN / LEUKOCYTE COUNT / MEAN CORPUSCULAR HEMOGLOBIN / MEAN CORPUSCULAR HEMOGLOBIN CONCENTRATION / MEAN CORPUSCULAR VOLUME / ABSOLUTE BASOPHIL / ABSOLUTE EOSINOPHIL / ABSOLUTE LYMPHOCYTE / ABSOLUTE MONOCYTE / ABSOLUTE SEGMENTED NEUTROPHIL / BASOPHIL / EOSINOPHIL / LYMPHOCYTE / MONOCYTE / NEUTROPHIL / NUCLEATED RED BLOOD CELLS / PLATELET COUNT: tissue Blood; for ALKALINE PHOSPHATASE / ASPARTATE AMINOTRANSFERASE / BLOOD UREA NITROGEN / CARBON DIOXIDE / CHLORIDE / CHOLESTEROL / CREATINE PHOSPHOKINASE / CREATININE / GLUCOSE / LACTATE DEHYDROGENASE / LIPASE / PHOSPHORUS / POTASSIUM / SODIUM / TOTAL BILIRUBIN / TOTAL PROTEIN / URIC ACID / ALANINE AMINOTRANSFERASE / ALBUMIN: tissue Plasma
[1] = 0 mg/kg, 72 h, dose level Control, time 3 day
[2] = 0 mg/kg, 120 h, dose level Control, time 5 day
[3] = 58 mg/kg, 72 h, dose level Low, time 3 day
[4] = 58 mg/kg, 120 h, dose level Low, time 5 day
[5] = 41 mg/kg, 72 h, dose level Low, time 3 day
[6] = 41 mg/kg, 120 h, dose level Low, time 5 day

## C#Cc1cccc(Nc2ncnc3cc(OCCOC)c(OCCOC)cc23)c1 [ERLOTINIB]
[1]
  ERYTHROCYTE COUNT: 6.09 x10E6/uL
  HEMATOCRIT: 42.62%
  HEMOGLOBIN: 13.07 G/DL
  LEUKOCYTE COUNT: 13.95 x10E3/uL
  MEAN CORPUSCULAR HEMOGLOBIN: 21.47 pg
  MEAN CORPUSCULAR HEMOGLOBIN CONCENTRATION: 30.62 G/DL
  MEAN CORPUSCULAR VOLUME: 70.05 fL
  ALKALINE PHOSPHATASE: 369 u/L
  ASPARTATE AMINOTRANSFERASE: 86.17 u/L
  BLOOD UREA NITROGEN: 16.33 mg/dL
  CARBON DIOXIDE: 37.33 mmol/L
  CHLORIDE: 104.83 MEQ/L
  CHOLESTEROL: 79.83 mg/dL
  CREATINE PHOSPHOKINASE: 392.83 u/L
  CREATININE: 0.68 mg/dL
  GLUCOSE: 153.33 mg/dL
  LACTATE DEHYDROGENASE: 426.17 u/L
  LIPASE: 11.67 u/L
  PHOSPHORUS: 11 mg/dL
  POTASSIUM: 6.72 MEQ/L
  SODIUM: 146.67 MEQ/L
  TOTAL BILIRUBIN: 0.55 mg/dL
  TOTAL PROTEIN: 6.32 G/DL
  URIC ACID: 0.0167 mg/dL
[2]
  ERYTHROCYTE COUNT: 6.93 x10E6/uL
  HEMATOCRIT: 46.82%
  HEMOGLOBIN: 14.23 G/DL
  LEUKOCYTE COUNT: 13.43 x10E3/uL
  MEAN CORPUSCULAR HEMOGLOBIN: 20.55 pg
  MEAN CORPUSCULAR HEMOGLOBIN CONCENTRATION: 30.38 G/DL
  MEAN CORPUSCULAR VOLUME: 67.62 fL
  ALKALINE PHOSPHATASE: 417.83 u/L
  ASPARTATE AMINOTRANSFERASE: 83 u/L
  BLOOD UREA NITROGEN: 15.33 mg/dL
  CARBON DIOXIDE: 38.83 mmol/L
  CHLORIDE: 98.17 MEQ/L
  CHOLESTEROL: 66.83 mg/dL
  CREATINE PHOSPHOKINASE: 383.17 u/L
  CREATININE: 0.72 mg/dL
  GLUCOSE: 156.5 mg/dL
  LACTATE DEHYDROGENASE: 519.67 u/L
  LIPASE: 4.83 u/L
  PHOSPHORUS: 11.07 mg/dL
  POTASSIUM: 6.03 MEQ/L
  SODIUM: 138 MEQ/L
  TOTAL BILIRUBIN: 0.55 mg/dL
  TOTAL PROTEIN: 6.3 G/DL
  URIC ACID: 0.0833 mg/dL
[3]
  ERYTHROCYTE COUNT: 7.23 x10E6/uL
  HEMATOCRIT: 47.6%
  HEMOGLOBIN: 14.6 G/DL
  LEUKOCYTE COUNT: 17.02 x10E3/uL
  MEAN CORPUSCULAR HEMOGLOBIN: 20.2 pg
  MEAN CORPUSCULAR HEMOGLOBIN CONCENTRATION: 30.77 G/DL
  MEAN CORPUSCULAR VOLUME: 265.73 fL
  ALKALINE PHOSPHATASE: 184.67 u/L
  ASPARTATE AMINOTRANSFERASE: 86.33 u/L
  BLOOD UREA NITROGEN: 16 mg/dL
  CARBON DIOXIDE: 39 mmol/L
  CHLORIDE: 107.67 MEQ/L
  CHOLESTEROL: 93.67 mg/dL
  CREATINE PHOSPHOKINASE: 293 u/L
  CREATININE: 0.73 mg/dL
  GLUCOSE: 141.33 mg/dL
  LACTATE DEHYDROGENASE: 441.67 u/L
  LIPASE: 21.33 u/L
  PHOSPHORUS: 10 mg/dL
  POTASSIUM: 6.7 MEQ/L
  SODIUM: 148.67 MEQ/L
  TOTAL BILIRUBIN: 0.73 mg/dL
  TOTAL PROTEIN: 5.13 G/DL
  URIC ACID: 0 mg/dL
[4]
  ERYTHROCYTE COUNT: 7.1 x10E6/uL
  HEMATOCRIT: 46.07%
  HEMOGLOBIN: 13.83 G/DL
  LEUKOCYTE COUNT: 18.86 x10E3/uL
  MEAN CORPUSCULAR HEMOGLOBIN: 19.47 pg
  MEAN CORPUSCULAR HEMOGLOBIN CONCENTRATION: 29.97 G/DL
  MEAN CORPUSCULAR VOLUME: 64.9 fL
  ALKALINE PHOSPHATASE: 222 u/L
  ASPARTATE AMINOTRANSFERASE: 105.33 u/L
  BLOOD UREA NITROGEN: 14.67 mg/dL
  CARBON DIOXIDE: 38.67 mmol/L
  CHLORIDE: 100.33 MEQ/L
  CHOLESTEROL: 81.33 mg/dL
  CREATINE PHOSPHOKINASE: 332 u/L
  CREATININE: 0.73 mg/dL
  GLUCOSE: 135 mg/dL
  LACTATE DEHYDROGENASE: 477.67 u/L
  LIPASE: 16.67 u/L
  PHOSPHORUS: 11.53 mg/dL
  POTASSIUM: 6.07 MEQ/L
  SODIUM: 141 MEQ/L
  TOTAL BILIRUBIN: 0.5 mg/dL
  TOTAL PROTEIN: 5.57 G/DL
  URIC ACID: 0.1 mg/dL

## CC(O)(P(=O)(O)O)P(=O)(O)O [ETIDRONIC ACID]
[5]
  ABSOLUTE BASOPHIL: 0 CELLS/uL
  ABSOLUTE EOSINOPHIL: 0 CELLS/uL
  ABSOLUTE LYMPHOCYTE: 15847 CELLS/uL
  ABSOLUTE MONOCYTE: 485 CELLS/uL
  ABSOLUTE SEGMENTED NEUTROPHIL: 1868 CELLS/uL
  BASOPHIL: 0%
  EOSINOPHIL: 0%
  ERYTHROCYTE COUNT: 5.74 x10E6/uL
  HEMATOCRIT: 35.63%
  HEMOGLOBIN: 13.33 G/DL
  LEUKOCYTE COUNT: 18.2 x10E3/uL
  LYMPHOCYTE: 86.67%
  MEAN CORPUSCULAR HEMOGLOBIN: 23.27 pg
  MEAN CORPUSCULAR HEMOGLOBIN CONCENTRATION: 37.43 G/DL
  MEAN CORPUSCULAR VOLUME: 62.13 fL
  MONOCYTE: 2.67%
  NEUTROPHIL: 10.67%
  NUCLEATED RED BLOOD CELLS: 0 /100WBC
  PLATELET COUNT: 1274.67 x10E3/uL
  ALANINE AMINOTRANSFERASE: 42.33 u/L
  ALBUMIN: 4.67 G/DL
  ALKALINE PHOSPHATASE: 379 u/L
  ASPARTATE AMINOTRANSFERASE: 79 u/L
  BLOOD UREA NITROGEN: 20.67 mg/dL
  CARBON DIOXIDE: 24 mmol/L
  CHLORIDE: 100 MEQ/L
  CHOLESTEROL: 62.33 mg/dL
  CREATINE PHOSPHOKINASE: 167.33 u/L
  CREATININE: 0.19 mg/dL
  GLUCOSE: 153 mg/dL
  LACTATE DEHYDROGENASE: 126 u/L
  LIPASE: 9.33 u/L
  PHOSPHORUS: 12.13 mg/dL
  POTASSIUM: 7.21 MEQ/L
  SODIUM: 143.1 MEQ/L
  TOTAL BILIRUBIN: 0.2 mg/dL
  TOTAL PROTEIN: 5.6 G/DL
  URIC ACID: 1.7 mg/dL
[6]
  ABSOLUTE BASOPHIL: 0 CELLS/uL
  ABSOLUTE EOSINOPHIL: 0 CELLS/uL
  ABSOLUTE LYMPHOCYTE: 11460.33 CELLS/uL
  ABSOLUTE MONOCYTE: 399 CELLS/uL
  ABSOLUTE SEGMENTED NEUTROPHIL: 1374 CELLS/uL
  BASOPHIL: 0%
  EOSINOPHIL: 0%
  ERYTHROCYTE COUNT: 5.69 x10E6/uL
  HEMATOCRIT: 35%
  HEMOGLOBIN: 13.13 G/DL
  LEUKOCYTE COUNT: 13.23 x10E3/uL
  LYMPHOCYTE: 86.67%
  MEAN CORPUSCULAR HEMOGLOBIN: 23.1 pg
  MEAN CORPUSCULAR HEMOGLOBIN CONCENTRATION: 37.57 G/DL
  MEAN CORPUSCULAR VOLUME: 61.53 fL
  MONOCYTE: 3%
  NEUTROPHIL: 10.33%
  NUCLEATED RED BLOOD CELLS: 0 /100WBC
  PLATELET COUNT: 1338.67 x10E3/uL
  ALANINE AMINOTRANSFERASE: 43 u/L
  ALBUMIN: 4.23 G/DL
  ALKALINE PHOSPHATASE: 323.33 u/L
  ASPARTATE AMINOTRANSFERASE: 88.33 u/L
  BLOOD UREA NITROGEN: 18.67 mg/dL
  CARBON DIOXIDE: 23 mmol/L
  CHLORIDE: 108.5 MEQ/L
  CHOLESTEROL: 50 mg/dL
  CREATINE PHOSPHOKINASE: 367.67 u/L
  CREATININE: 0.18 mg/dL
  GLUCOSE: 149.33 mg/dL
  LACTATE DEHYDROGENASE: 265.67 u/L
  LIPASE: 8.5 u/L
  PHOSPHORUS: 10.7 mg/dL
  POTASSIUM: 5.74 MEQ/L
  SODIUM: 146.55 MEQ/L
  TOTAL BILIRUBIN: 0.2 mg/dL
  TOTAL PROTEIN: 5.8 G/DL
  URIC ACID: 1.53 mg/dL
